According to patent publication US8609719B2, “Propargylated aminoindans, processes for preparation, and uses thereof” (priority 2006, dated 2013):
Structures can show the parent of a compound that is named as a salt. Where two headings read alike, the source gives them in different places.

What was measured:
Format in all cases: biochemical
[1] = target: T1, MAO-B (Rattus norvegicus, UniProt P19643); experiment: Inhibition of MAO activity in vitro (PEA substrate)
T1 construct: from tissue; host or cells: brain, liver and intestine (duodenum) of dosed rats
T1 sequence (P19643 1-520): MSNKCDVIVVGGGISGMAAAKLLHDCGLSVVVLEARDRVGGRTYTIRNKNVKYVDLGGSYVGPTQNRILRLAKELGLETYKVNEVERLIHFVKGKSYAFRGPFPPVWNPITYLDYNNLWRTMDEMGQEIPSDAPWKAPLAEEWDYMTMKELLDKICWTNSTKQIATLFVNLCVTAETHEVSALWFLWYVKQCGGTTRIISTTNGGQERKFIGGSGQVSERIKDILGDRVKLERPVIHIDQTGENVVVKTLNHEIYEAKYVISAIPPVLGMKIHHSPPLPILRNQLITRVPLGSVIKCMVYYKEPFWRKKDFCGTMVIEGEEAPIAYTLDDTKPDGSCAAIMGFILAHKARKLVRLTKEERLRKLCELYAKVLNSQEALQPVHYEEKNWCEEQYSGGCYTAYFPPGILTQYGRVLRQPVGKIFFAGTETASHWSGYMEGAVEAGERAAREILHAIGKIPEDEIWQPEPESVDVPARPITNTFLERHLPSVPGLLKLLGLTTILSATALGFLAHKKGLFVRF
Method: (§1) The MAO enzyme source was a homogenate of rat brain in 0.3M sucrose. The homogenate was diluted appropriately, and pre-incubated with serial dilutions of test compounds—diluted in phosphate buffer containing clogyline when 2-phenylethylamine (PEA) is the substrate, and diluted in phosphate buffer containing selegiline when 5-hydroxytryptamine (5-HT) is the substrate—for 60 minutes at 37° C. 14C-Labeled substrates (PEA for MAO-B determination and 5-HT for MAO-A determination) were then added, and the incubation continued for a further 20 minutes (PEA) or 30 minutes (5-HT). Substrate concentrations used were 10 μM (PEA) and 100 uM (5-HT). Enzyme concentration was chosen so that not more than 10% of the substrate was metabolized during the course of the reaction. Deaminated products were extracted into toluene-ethyl acetate (1:1 v/v) containing 0.4% (w/v) 2,5-diphenyloxazole (ppo) prior to determination by liquid scintillation counting. Radioactivity in the eluate indicated the production of neutral and acidic metabolites formed as a result of MAO activity. Activity of MAO in the sample was expressed as a percentage of control activity in the absence of inhibitor after subtraction of appropriate blank values. The activity determined using PEA as substrate is referred to as MAO-B, and that determined using 5-HT as MAO-A.
(§2) Concentrations of each inhibitor producing 50% inhibition of substrate metabolism (IC50) were calculated from the inhibition curves, and are shown in Table 1.

[2] = target: T2, MAO-A (Rattus norvegicus, UniProt P21396); experiment: Inhibition of MAO activity in vitro (5-HT substrate)
T2 construct: from tissue; host or cells: brain, liver and intestine (duodenum) of dosed rats
T2 sequence (P21396 1-526): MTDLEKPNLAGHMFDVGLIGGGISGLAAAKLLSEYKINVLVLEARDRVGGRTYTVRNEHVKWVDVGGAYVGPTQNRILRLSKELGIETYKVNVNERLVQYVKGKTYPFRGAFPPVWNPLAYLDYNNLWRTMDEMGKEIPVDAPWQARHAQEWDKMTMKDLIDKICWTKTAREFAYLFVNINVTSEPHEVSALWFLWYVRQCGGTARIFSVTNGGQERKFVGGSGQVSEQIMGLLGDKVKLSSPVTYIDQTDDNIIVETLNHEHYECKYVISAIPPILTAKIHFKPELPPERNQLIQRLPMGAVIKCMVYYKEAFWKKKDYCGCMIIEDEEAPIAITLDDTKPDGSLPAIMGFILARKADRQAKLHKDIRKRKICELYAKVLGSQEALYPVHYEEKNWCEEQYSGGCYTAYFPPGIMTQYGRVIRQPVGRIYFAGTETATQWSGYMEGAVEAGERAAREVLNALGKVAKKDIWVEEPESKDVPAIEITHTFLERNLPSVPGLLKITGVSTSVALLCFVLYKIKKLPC
Method: as §1, §2

[3] = target: T3, BuChE from human serum (Homo sapiens, UniProt P06276); experiment: Inhibition of butyrylcholinesterase activity in vitro (Ellman, stopped time assay); design: ki (bimolecular rate constant): unit not given here
T3 construct: BuChE from human serum (C-9971); purchased Sigma-Aldrich Israel C-9971; host or cells: purified from human serum
Method: BuChE from human serum (C-9971), butyrylthiocholine iodide (BuTh, B3253), bovine serum albumin (BSA, A-2153) 5,5′-dithiobis(2-nitrobenzoic acid) (DTNB, D8130) were obtained from Sigma-Aldrich Israel. BuChE was dissolved in phosphate buffer pH 8.0 containing 0.01% sodium azide (NaAz) and 1 mM EDTA and diluted to give a concentration of 35.9 units/ml. This solution was divided into aliquots of 0.5 ml, which were stored at −70° C. until use.
The inhibitory activity against BuChE was determined by the method of Ellmann et al. (Biochemical Pharmacology, 1961 (7) 88-95) using BuTh as a substrate. To characterize the carbamoylation step, a traditional stopped time assay was performed, in which BuChE was incubated at 37° C. with a minimum of 5 different concentrations of inhibitor in the assay buffer, and aliquots were transferred to an ELISA multiscan microplate reader (Labsystems) at various times for the determination of residual BuChE activity, with Ascent PC® software. The rate of reaction was measured at 412λ at 37° C. in 0.2 ml wells containing […] 0.023 units per ml, DTNB 0.4-0.5 mM, AcTh 0.50 or 1 mM and BSA (0.05%) in 50 mM phosphate buffer as described above. For all compounds measurements were made every 2 min for 15 min and then every 15 min for 3 hr.
The inhibition of BuChE by carbamates involves the formation of a reversible complex (EOH•CX), followed by carbamoylation of the enzyme to form (EOC) and a leaving group (HX). The carbamoylated enzyme is then hydrolyzed by water to regenerate the free enzyme (EOH). The formation of the reversible complex is represented by the equilibrium constant: KD. For the carbamoylation phase of the inhibition process the unimolecular rate constant is represented by kmax, and the bimolecular rate constant by ki.

T3 sequence (P06276 29-602): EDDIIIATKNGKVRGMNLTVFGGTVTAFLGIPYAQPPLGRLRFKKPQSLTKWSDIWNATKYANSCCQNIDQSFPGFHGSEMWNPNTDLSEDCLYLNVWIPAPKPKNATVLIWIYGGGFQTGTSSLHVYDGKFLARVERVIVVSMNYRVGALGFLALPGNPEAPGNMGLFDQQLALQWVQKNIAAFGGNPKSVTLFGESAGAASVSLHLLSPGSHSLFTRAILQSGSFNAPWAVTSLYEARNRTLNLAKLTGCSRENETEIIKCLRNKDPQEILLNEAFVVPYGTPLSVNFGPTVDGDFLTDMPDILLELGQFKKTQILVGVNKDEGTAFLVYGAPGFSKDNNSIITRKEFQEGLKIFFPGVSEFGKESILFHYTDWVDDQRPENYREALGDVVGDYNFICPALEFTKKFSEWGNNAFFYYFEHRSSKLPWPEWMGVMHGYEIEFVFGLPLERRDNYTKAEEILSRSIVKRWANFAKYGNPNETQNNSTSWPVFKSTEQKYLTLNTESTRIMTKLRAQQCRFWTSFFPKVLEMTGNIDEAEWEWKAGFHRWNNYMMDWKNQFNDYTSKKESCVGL

SMILES	IC50 [1]	IC50 [2]	Kd [3]	inhibition of butyrylcholinesterase, in words [3]	ki (bimolecular rate constant) ([3]; BuChE, 37° C.)	kmax (unimolecular carbamoylation rate constant) ([3]; BuChE, 37° C.)	IC50 ([1]; rat brain homogenate, PEA 10 μM, 60 minutes pre-incubation at 37° C., read-out: IC50 for MAO-B inhibition)	IC50 ([2]; rat brain homogenate, 5-HT 100 uM, 60 minutes pre-incubation at 37° C., read-out: IC50 for MAO-A inhibition)	Kd ([3]; BuChE, 37° C., read-out: KD (equilibrium constant of reversible complex))
C#CCN[C@@H]1CCc2ccc(OC(=O)NC)cc21 [R-MCPAI, Methyl-carbamic acid 3-R-(prop-2-ynylamino)-indan-5-yl ester hydrochloride]	42 µM	37 µM	21 ± 2 µM	potent inhibitors	31.3 ± 2.0	0.65 ± 0.03 min⁻¹			
C#CCN[C@@H]1CCc2ccc(OC(=O)N(CC)CO)cc21 [R-HCPAI, Ethyl-hydroxymethyl-carbamic acid 3-R-(prop-2-ynylamino)-indan-5-yl ester fumarate (2:1)]				weak inhibitor	0.936 ± 0.06	0.104 ± 0.043 min⁻¹	599 µM	414 µM	111 ± 50 µM
CNC(=O)Oc1ccc2c(c1)[C@H](N)CC2 [R-MCAI, Methyl-carbamic acid 3-R-amino-indan-5-yl ester hydrochloride]	> 1000 µM	32.2 µM	36 ± 5 µM	potent inhibitors	14.5 ± 0.42	0.516 ± 0.050 min⁻¹			
